From patent US5726319A, “Biphenyl substituted dipeptide analogs promote release of growth hormone” (Merck & Co., Inc., priority 1995, dated 1998) come the findings set out here.

Counter-ions that a name gives are not always drawn. Like-named read-outs stand apart in the source and are kept apart here.

The subject of this experiment is rat pituitary cells. Put plainly: growth hormone secretion in rat pituitary cell cultures (GH release, RIA). Type of experiment: cell-based. The note with it: GH release from cultured rat anterior pituitary cells, 15 min incubation at 37° C., rat GH measured by double antibody RIA, read-out: ED50 (the source's name). On the procedure: The bioassay employed for the determination of growth hormone secretion in rat pituitary cell cultures has been previously described--Cheng, K.; Chan, W. W.-S; Barreto, A.; Convey, E. M.; Smith, R. G. Endocrinology 124: 2791-2798 (1989)--and is summarized here: The Wistar male rats (150-200 grams) were obtained from Charles River Laboratories (Wilmington, Mass). Rats were maintained at a constant temperature (25° C.) on a 14-hr light, 10-hr dark cycle. Rat chow and water were available ad libitum. The animals were sacrificed by decapitation and anterior lobes of the pituitary quickly removed. Rat pituitary cells were isolated from pituitaries by enzymatic digestion with 0.2% collagenase and 0.2% hyaluronidase in Hank's Balanced Salt Solution. For culture, the cells were suspended in culture medium and adjusted to 1.5×10^5 cells/ml, and 1.0 ml of this suspension was placed in each well of a 24-well tray (Costar, Cambridge, Mass.). Cells were maintained in a humidified 5% CO2 -95% air atmosphere at 37° C. for 3 to 4 days. The culture medium consisted of DMEM containing 0.37% NaHCO3, 10% horse serum, 2.5% fetal bovine serum, 1% non-essential amino acids, 1% glutamine, 1% nystatin, and 0.1% gentamycin. On the day of an experiment, cells were washed twice 11/2 hrs prior to and once more immediately before the start of the experiment with the above culture medium containing 25 mM HEPES, pH 7.4. GH release was initiated by adding 1 ml of fresh medium containing test agents to each well in quadruplicate. Incubation was carded out at 37° C. for 15 min. After incubation, medium was removed and centrifuged at 2,000×g for 15 min to remove any cellular material. The supernatant fluid was removed and assayed for GH content. Rat GH in culture medium was measured by a double antibody RIA procedure using materials obtained from Dr. A. F. Parlow (Harbor-UCLA medical Center, Torrance, Calif.) and expressed in terms of the standard rat GH RP-2. ED50 values for test compounds were computed by fitting a four-parameter logistic function to the dose-response curve. Least squares estimates of the four-parameter logistic function coefficients and their variances were derived using the iterative algorithm described by Bates and Watts.

For the molecule `CC(C)(N)C(=O)N[C@H](COCc1ccccc1)C(=O)NCc1ccc(-c2ccccc2NC(=O)NCCO)cc1.O=C(O)C(F)(F)F` [Example 25, (R)-α-[(2-Amino-2-methyl-1-oxopropyl)amino]-N-[[(2'-[(2-hydroxyethylamino)carbonyl]amino][1,1'-biphenyl]-4-yl]-methyl]-3-[(phenylmethyl)oxy]propanamide, trifluoracetate], the EC50 was greater than 500 nM.

In the case of `CNC(=O)Nc1ccccc1-c1ccc(N(C)C(=O)[C@@H](CCc2ccccc2)NC(=O)C(C)(C)N)cc1.O=C(O)C(F)(F)F` [Example 33], the EC50 was greater than 500 nM.

For “(R)-α-[(2-Amino-2-methyl)-1-oxopropyl]amino-N-methyl-N-[(2'-[[(methylamino)carbonyl]amino)methyl][1,1'-biphenyl]-4-yl]benzenebutanamide, trifluoroacetate [Example 35]”, the EC50 is less than 500 nM.

Take `COc1ccc(N(Cc2ccc(-c3ccccc3-c3nnn[nH]3)cc2)C(=O)[C@@H](CCc2ccccc2)NC(=O)C(C)(C)N)cc1.O=C(O)C(F)(F)F` [Example 29, (R)-α-[(2-Amino-2-methyl-1-oxypropyl)amino]-N-(4-methoxyphenyl)-N-[[2'-(1H-tetrazol-5-yl)-[1,1'-biphenyl]-4-yl]methyl]benzenebutanamide, trifluoroacetate]: the EC50 is greater than 500 nM.

Regarding `CNC(=O)Nc1ccccc1-c1ccc(CNC(=O)[C@@H](Cc2c[nH]c3ccccc23)NC(=O)CC(C)(C)N)cc1` [Example 15, (R)-α-[(3-Amino-3-methyl-1-oxobutyl)amino]-N-[[2'-[[(methylamino)carbonyl]amino][1,1'-biphenyl]-4-yl]-methyl]-1H-indole-3-propanamide, trifluoroacetate], the EC50 (0.25 h) was greater than 500 nM.

As to `CC(C)(N)CC(=O)N[C@H](Cc1c[nH]c2ccccc12)C(=O)NCc1ccc(-c2ccccc2-c2nnn[nH]2)cc1` [Example 3, (R)-α-[(3-Amino-3-methyl-1-oxobutyl)amino]-N-[[2'-(1H-tetrazol-5-yl)[1,1'-biphenyl]-4-yl]methyl]-1H-indole-3-propanamide, trifluoroacetate], under “0.25 h”, the EC50 is less than 500 nM.

For `CC(C)(N)CC(=O)N[C@H](CCc1ccccc1)C(=O)NCc1ccc(-c2ccccc2-c2nnn[nH]2)cc1` [Example 1, (R)-α-[(3-Amino-3-methyl-1-oxobutyl)amino]-N-[[2'-(1H-tetrazol-5-yl)[1,1'-biphenyl]-4-yl]methyl]benzene-butanamide, trifluoroacetate], the EC50 (0.25 h) was greater than 500 nM.

On to `CN(Cc1ccc(-c2ccccc2-c2nnn[nH]2)cc1)C(=O)[C@@H](Cc1c[nH]c2ccccc12)NC(=O)C(C)(C)N` [Example 13, (R)-α-[(2-Amino-2-methyl-1-oxopropyl)amino]-N-methyl-N-[[2'-(1H-tetrazol-5-yl)[1,1'-biphenyl]-4-yl]methyl]-1H-indole-3-propanamide, trifluoroacetate], for which, under “0.25 h”, the EC50 was greater than 500 nM.

For the molecule `CC(C)(N)C(=O)N[C@H](COCc1ccccc1)C(=O)NCc1ccc(-c2ccccc2-c2nnn[nH]2)cc1.O=C(O)C(F)(F)F` [Example 27, (R)-α-[(2-Amino-2-methyl-1-oxypropyl)amino]-N-[[2'-(1H-tetrazol-5-yl)-[1,1'-biphenyl]-4-yl]methyl]-3-[(phenylmethyl)oxy]propanamide, trifluoracetate], the EC50 is greater than 500 nM.

In the case of `COc1ccc(N(Cc2ccc(-c3ccccc3-c3nnn[nH]3)cc2)C(=O)[C@@H](CCc2ccccc2)NC(=O)CC(C)(C)N)cc1.O=C(O)C(F)(F)F` [Example 30, (R)-α-[(3-Amino-3-methyl-1-oxybutyl)amino]-N-(4-methoxyphenyl)-N-[[2'-(1H-tetrazol-5-yl)-[1,1'-biphenyl]-4-yl]methyl]-benzenebutanamide, trifluoroacetate], the EC50 was greater than 500 nM.

Regarding `CC(C)(N)CC(=O)NCC(=O)NCc1ccc(-c2ccccc2-c2nnn[nH]2)cc1` [Example 5, 2-[(3-Amino-3-methyl-1-oxobutyl)amino]-N-[[2'-(1H-tetrazol-5-yl)[1,1'-biphenyl]-4-yl]methyl]acetamide, trifluoroacetate], the EC50 (0.25 h) was greater than 500 nM.

With “(R)-α-[(2-Amino-2-methyl)-1-oxopropyl]amino-N -methyl-N -[2'-(1H -tetrazol-5-yl)[1,1'-biphenyl]-4-yl]butanamide, trifluoroacetate [Example 34]”, the EC50 was less than 500 nM.

For `CN(Cc1ccc(-c2ccccc2-c2nnn[nH]2)cc1)C(=O)[C@@H](CCc1ccccc1)NC(=O)CCC(C)(C)N.O=C(O)C(F)(F)F` [Example 11, (R)-α-[(4-Amino-4-methyl-1-oxopentyl)amino]-N-methyl-N-[[2'-(1H-tetrazol-5-yl)[1,1'-biphenyl]-4-yl]methyl]benzenebutan amide, trifluoroacetate], the EC50 was less than 500 nM.

With `CNC(=O)NCc1ccccc1-c1ccc(CN(C)C(=O)[C@@H](CCc2ccccc2)NC(=O)CC(C)(C)N)cc1.O=C(O)C(F)(F)F` [Example 10], the EC50 is less than 500 nM.

With `CCN(Cc1ccc(-c2ccccc2-c2nnn[nH]2)cc1)C(=O)[C@@H](CCc1ccccc1)NC(=O)CC(C)(C)N.O=C(O)C(F)(F)F` [Example 19, (R)-α-[(3-Amino-3-methyl-1-oxybutyl)amino]-N-ethyl-N-[[2'-(1H-tetrazol-5-yl)-[1,1'-biphenyl]-4-yl]methyl]benzenebutanamide, trifluoroacetate], the EC50 was greater than 500 nM.

As to `CNC(=O)NCc1ccccc1-c1ccc(CN(C)C(=O)[C@@H](Cc2c[nH]c3ccccc23)NC(=O)C(C)(C)N)cc1.O=C(O)C(F)(F)F` [Example 14], the EC50 was less than 500 nM.

Consider `CNC(=O)NCc1ccccc1-c1ccc(CN(C)C(=O)[C@@H](CCc2ccccc2)NC(=O)CCC(C)(C)N)cc1.O=C(O)C(F)(F)F` [Example 12], for which the EC50 was less than 500 nM.

With `CCN(Cc1ccc(-c2ccccc2CNC(=O)NC)cc1)C(=O)[C@@H](CCc1ccccc1)NC(=O)CC(C)(C)N.O=C(O)C(F)(F)F` [Example 21], the EC50 was less than 500 nM.

For the molecule `CN(Cc1ccc(-c2ccccc2C#N)cc1)C(=O)[C@@H](CCc1ccccc1)NC(=O)C(C)(C)N.O=C(O)C(F)(F)F` [Example 7b, (R)-α-[(2-amino-2-methyl-1-oxypropyl)amino]-N-[[2'-cyano-[1,1'-biphenyl]-4-yl]methyl]-N-methyl-benzenebutanamide trifluoroacetate], the EC50 was greater than 500 nM.

In the case of `CNC(=O)Nc1ccccc1-c1ccc(CNC(=O)[C@@H](COCc2ccccc2)NC(=O)CC(C)(C)N)cc1.O=C(O)C(F)(F)F` [Example 24], the EC50 was greater than 500 nM.

For `CNC(=O)Nc1ccccc1-c1ccc(CNC(=O)[C@@H](COCc2ccccc2)NC(=O)C(C)(C)N)cc1` [Example 23, (R)-α-[(2-Amino-2-methyl-1-oxopropyl]amino]-N-[[2'-[[(methylamino)carbonyl]amino][1,1'-biphenyl]-4-yl]methyl]-3-[(phenylmethyl)oxy]propanamide, trifluoroacetate], for the setting “0.25 h”, the EC50 was greater than 500 nM.

As to `CC(C)(N)CC(=O)N[C@H](COCc1ccccc1)C(=O)NCc1ccc(-c2ccccc2NC(=O)NCCO)cc1.O=C(O)C(F)(F)F` [Example 26, (R)-α-[(3-Amino-3-methyl-1-oxobutyl)amino]-N-[[(2'-[(2-hydroxyethylamino)carbonyl]amino][1,1'-biphenyl]-4-yl]-methyl]-3-[(phenylmethyl)oxy]propanamide, trifluoracetate], the EC50 was greater than 500 nM.

On to `CC(C)(N)CC(=O)N[C@H](Cc1c[nH]c2ccccc12)C(=O)NCc1ccc(-c2ccccc2NC(=O)NCCO)cc1` [Example 17, (R)-α-[(3-Amino-3-methyl-1-oxobutyl)amino]-N-[[2'-[[(2-hydroxyethylamino)carbonyl]amino][1,1'-biphenyl]-4-yl]-methyl]-1H-indole-3-propanamide, trifluoroacetate], for which the EC50 (0.25 h) was greater than 500 nM.

Consider `CNC(=O)NCc1ccccc1-c1ccc(CN(C)C(=O)[C@@H](CCc2ccccc2)NC(=O)C(C)(C)N)cc1.O=C(O)C(F)(F)F` [Example 9], for which the EC50 was less than 500 nM.

For the molecule `CC[C@@H](NC(=O)CC(C)(C)N)C(=O)N(Cc1ccc(-c2ccccc2-c2nnn[nH]2)cc1)c1ccccc1` [Example 4, (R)-2-[(3-Amino-3-methyl-1-oxobutyl)amino]-N-phenyl-N-[[2'-(1H-tetrazol-5-yl)[1,1'-biphenyl]-4-yl]methyl]butanamide, trifluoroacetate], the EC50 (0.25 h) was greater than 500 nM.
